ChEMBL document CHEMBL4373660, “The synthesis and biological evaluation of novel gardenamide A derivatives as multifunctional neuroprotective agents” (Medchemcomm, 2019)

Columns and labels:
Cortical neurone [1] = assay: (§1) Neuroprotective activity against OGD-induced neurotoxicity in Sprague-Dawley rat cortical neuron assessed as cell survival rate at 1 uM pretreated for 24 hrs followed by incubation in oxygen and glucose deprivation medium for 2 hrs followed by exposure to reoxygenation by re-incubating in normoxia condition for 24 hrs by MTT assay (reference value: 58.5 to 61.2 %); format: functional
Cortical neurone [2] = assay: as §1, with “at 0.1” for “at 1”; format: functional
Cortical neurone [3] = assay: as §1, with “at 10” for “at 1”; format: functional
[4] = Neuroprotective activity against H2O2-induced neurotoxicity in Sprague-Dawley rat hippocampal neuron assessed as cell survival rate at 10 uM incubated for 24 hrs in presence of 150 uM H2O2 by MTT assay (reference value: 41.6 to 43.2 %); format: functional, Hippocampal neurone
[5] = Neuroprotective activity against H2O2-induced neurotoxicity in Sprague-Dawley rat hippocampal neuron assessed as cell survival rate at 0.1 uM incubated for 24 hrs in presence of 150 uM H2O2 by MTT assay (reference value: 41.6 to 43.2 %); format: functional, Hippocampal neurone
[6] = Neuroprotective activity against H2O2-induced neurotoxicity in Sprague-Dawley rat hippocampal neuron assessed as cell survival rate at 1 uM incubated for 24 hrs in presence of 150 uM H2O2 by MTT assay (reference value: 41.6 to 43.2 %); format: functional, Hippocampal neurone
Hippocampal neurone [7] = assay: Neuroprotective activity against H2O2-induced neurotoxicity in Sprague-Dawley rat hippocampal neuron assessed as increase in cell survival rate incubated for 24 hrs in presence of 150 uM H2O2 by MTT assay; format: functional, cell-based
[8] = Cytotoxicity against Sprague-Dawley rat cortical neuron assessed as cell survival at 3.7 uM incubated for 48 hrs by CellTiter Glo-based luminescence assay relative to control; set-up: species or system Cortical neurone; settings: rat cortical neurons, read-out: Activity
Hippocampal neurone [9] = assay: Neuroprotective activity against amyloid beta (1 to 42)-induced neurotoxicity in Sprague-Dawley rat hippocampal neuron assessed as increase in cell survival rate incubated for 48 hrs in presence of amyloid beta (1 to 42) by CellTiter Glo-based luminescence assay; format: functional
[10] = Cytotoxicity against Sprague-Dawley rat cortical neuron assessed as cell survival at 33.3 uM incubated for 48 hrs by CellTiter Glo-based luminescence assay relative to control; set-up: species or system Cortical neurone; settings: rat cortical neurons, read-out: Activity
[11] = Cytotoxicity against Sprague-Dawley rat cortical neuron assessed as cell survival at 11.1 uM incubated for 48 hrs by CellTiter Glo-based luminescence assay relative to control; set-up: species or system Cortical neurone; settings: rat cortical neurons, read-out: Activity
[12] = Cytotoxicity against Sprague-Dawley rat cortical neuron assessed as cell survival at 100 uM incubated for 48 hrs by CellTiter Glo-based luminescence assay relative to control; set-up: species or system Cortical neurone; settings: rat cortical neurons, read-out: Activity

Structure (SMILES): COC(=O)C1=CN(C)C(=O)[C@@H]2C(CN3CCN(Cc4ccc(C(F)(F)F)cc4)CC3)=CC[C@H]12.Cl.Cl
- Activity (Cortical neurone [1]): 72.2%
- Activity (Cortical neurone [2]): 63%
- Activity (Cortical neurone [3]): 80.9%

Structure (SMILES): CC(=O)N[C@@H](CS)C(=O)O [ACETYLCYSTEINE]
- Activity [4]: 79.1%
- Activity [5]: 62.6%
- Activity [6]: 69.5%

Structure (SMILES): COC(=O)C1=CN(C)C(=O)[C@@H]2C(CN3CCN(Cc4ccc(F)cc4)CC3)=CC[C@H]12.Cl.Cl
- Activity (Cortical neurone [1]): 71.3%
- Activity (Hippocampal neurone [7]): Dose-dependent effect
- viability at 48 h, 3.7 µM [8]: 98.4%
- Activity (Hippocampal neurone [9]): Dose-dependent effect
- Activity (Cortical neurone [2]): 63.8%
- Activity [4]: 78.5%
- Activity (Cortical neurone [3]): 85.7%
- Activity [5]: 62.5%
- viability at 48 h, 33.3 µM [10]: 85.1%
- viability at 48 h, 11.1 µM [11]: 96.2%
- viability at 48 h, 100 µM [12]: 78.5%
- Activity [6]: 70.3%

Structure (SMILES): COc1cc2c(cc1OC)C(=O)C(CC1CCN(Cc3ccccc3)CC1)C2 (configuration not stated) [DONEPEZIL]
- Activity (Cortical neurone [1]): 72.3%
- Activity (Cortical neurone [2]): 65.5%
- Activity (Cortical neurone [3]): 85.9%

Structure (SMILES): COC(=O)C1=CN(C(C)C)C(=O)[C@@H]2C(CN3CCN(Cc4ccc([N+](=O)[O-])cc4)CC3)=CC[C@H]12.Cl.Cl
- Activity (Cortical neurone [1]): 74.3%
- Activity (Hippocampal neurone [7]): Dose-dependent effect
- viability at 48 h, 3.7 µM [8]: 97.2%
- Activity (Hippocampal neurone [9]): Dose-dependent effect
- Activity (Cortical neurone [2]): 67.1%
- Activity [4]: 82.1%
- Activity (Cortical neurone [3]): 87.6%
- Activity [5]: 57.6%
- viability at 48 h, 33.3 µM [10]: 88.7%
- viability at 48 h, 11.1 µM [11]: 99.7%
- viability at 48 h, 100 µM [12]: 78.5%
- Activity [6]: 73.8%

Structure (SMILES): COC(=O)C1=CN(C(C)C)C(=O)[C@@H]2C(CN3CCN(Cc4ccccc4)CC3)=CC[C@H]12.Cl.Cl
- Activity (Cortical neurone [1]): 71.8%
- Activity (Hippocampal neurone [7]): Dose-dependent effect
- viability at 48 h, 3.7 µM [8]: 90.7%
- Activity (Hippocampal neurone [9]): Dose-dependent effect
- Activity (Cortical neurone [2]): 64.4%
- Activity [4]: 76.2%
- Activity (Cortical neurone [3]): 84.5%
- Activity [5]: 60.3%
- viability at 48 h, 33.3 µM [10]: 91.7%
- viability at 48 h, 11.1 µM [11]: 96.3%
- viability at 48 h, 100 µM [12]: 82.5%
- Activity [6]: 71%

Structure (SMILES): COC(=O)C1=CN(C)C(=O)[C@@H]2C(CN3CCN(Cc4cccc(OC)c4)CC3)=CC[C@H]12.Cl.Cl
- Activity (Cortical neurone [1]): 63.8%
- Activity (Cortical neurone [2]): 59.5%
- Activity (Cortical neurone [3]): 72.5%

Structure (SMILES): COC(=O)C1=CN(C)C(=O)[C@@H]2C(CN3CCN(Cc4cccc(C(F)(F)F)c4)CC3)=CC[C@H]12.Cl.Cl
- Activity (Cortical neurone [1]): 72.5%
- Activity (Cortical neurone [2]): 63.3%
- Activity (Cortical neurone [3]): 80.3%

Structure (SMILES): COC(=O)C1=CNC(=O)[C@@H]2C(CO)=CC[C@H]12
- Activity (Cortical neurone [1]): 69.4%
- Activity (Cortical neurone [2]): 59%
- Activity [4]: 70.9%
- Activity (Cortical neurone [3]): 79.3%
- Activity [5]: 59%
- Activity [6]: 65.8%

Structure (SMILES): COC(=O)C1=CN(C)C(=O)[C@@H]2C(CN3CCN(Cc4ccc(Cl)cc4)CC3)=CC[C@H]12.Cl.Cl
- Activity (Cortical neurone [1]): 71%
- Activity (Cortical neurone [2]): 62.7%
- Activity (Cortical neurone [3]): 80.1%

Structure (SMILES): COC(=O)C1=CN(C(C)C)C(=O)[C@@H]2C(CN3CCN(Cc4cccc(C(F)(F)F)c4)CC3)=CC[C@H]12.Cl.Cl
- Activity (Cortical neurone [1]): 71.6%
- Activity (Cortical neurone [2]): 58.7%
- Activity (Cortical neurone [3]): 85.5%

Structure (SMILES): COC(=O)C1=CN(C(C)C)C(=O)[C@@H]2C(CN3CCN(Cc4ccc(F)cc4)CC3)=CC[C@H]12.Cl.Cl
- Activity (Cortical neurone [1]): 74.4%
- Activity (Hippocampal neurone [7]): Dose-dependent effect
- viability at 48 h, 3.7 µM [8]: 94.2%
- Activity (Hippocampal neurone [9]): Dose-dependent effect
- Activity (Cortical neurone [2]): 65.4%
- Activity [4]: 72.4%
- Activity (Cortical neurone [3]): 86.5%
- Activity [5]: 60.4%
- viability at 48 h, 33.3 µM [10]: 88.4%
- viability at 48 h, 11.1 µM [11]: 98.4%
- viability at 48 h, 100 µM [12]: 80.9%
- Activity [6]: 67.3%

Structure (SMILES): COC(=O)C1=CN(C)C(=O)[C@@H]2C(CN3CCN(Cc4ccc(C)cc4)CC3)=CC[C@H]12.Cl.Cl
- Activity (Cortical neurone [1]): 66.9%
- Activity (Cortical neurone [2]): 59%
- Activity (Cortical neurone [3]): 72.6%

Structure (SMILES): COC(=O)C1=CN(C)C(=O)[C@@H]2C(CN3CCN(Cc4ccccc4)CC3)=CC[C@H]12.Cl.Cl
- Activity (Cortical neurone [1]): 63.7%
- Activity (Cortical neurone [2]): 58.6%
- Activity (Cortical neurone [3]): 72.3%

Structure (SMILES): COC(=O)C1=CN(C(C)C)C(=O)[C@@H]2C(CN3CCN(Cc4cccc(OC)c4)CC3)=CC[C@H]12.Cl.Cl
- Activity (Cortical neurone [1]): 62.1%
- Activity (Cortical neurone [2]): 60.6%
- Activity (Cortical neurone [3]): 64%

Structure (SMILES): COC(=O)C1=CN(C(C)C)C(=O)[C@@H]2C(CN3CCN(Cc4cccc(C)c4)CC3)=CC[C@H]12.Cl.Cl
- Activity (Cortical neurone [1]): 71.3%
- Activity (Cortical neurone [2]): 59%
- Activity (Cortical neurone [3]): 84.8%

Structure (SMILES): COC(=O)C1=CN(C(C)C)C(=O)[C@@H]2C(CN3CCN(Cc4ccc(Cl)cc4)CC3)=CC[C@H]12.Cl.Cl
- Activity (Cortical neurone [1]): 64.3%
- Activity (Cortical neurone [2]): 58.7%
- Activity (Cortical neurone [3]): 71.9%

Structure (SMILES): COC(=O)C1=CN(C(C)C)C(=O)[C@@H]2C(CN3CCN(Cc4ccc(C)cc4)CC3)=CC[C@H]12.Cl.Cl
- Activity (Cortical neurone [1]): 73.1%
- Activity (Cortical neurone [2]): 59%
- Activity (Cortical neurone [3]): 85.7%

Structure (SMILES): COC(=O)C1=CN(C)C(=O)[C@@H]2C(CN3CCN(Cc4cccc(C)c4)CC3)=CC[C@H]12.Cl.Cl
- Activity (Cortical neurone [1]): 66.7%
- Activity (Cortical neurone [2]): 60.8%
- Activity (Cortical neurone [3]): 71.9%

Structure (SMILES): COC(=O)C1=CN(C)C(=O)[C@@H]2C(CN3CCN(Cc4ccc([N+](=O)[O-])cc4)CC3)=CC[C@H]12.Cl.Cl
- Activity (Cortical neurone [1]): 66.7%
- Activity (Cortical neurone [2]): 60%
- Activity (Cortical neurone [3]): 74.3%

Structure (SMILES): COC(=O)C1=CN(C(C)C)C(=O)[C@@H]2C(CN3CCN(Cc4ccc(C(F)(F)F)cc4)CC3)=CC[C@H]12.Cl.Cl
- Activity (Cortical neurone [1]): 71.6%
- Activity (Cortical neurone [2]): 59.1%
- Activity (Cortical neurone [3]): 85.7%
